Measured values reported in a melting point compilation (Tetko et al.).
Residues, ends and D or L forms follow the SMILES beside them. *: point of attachment. Butoxycarbonyl = CCCCOC(=O)*; Bn = c1ccc(C*)cc1

melting point | Compound
173 to 174 °C | CN(Cc1ccccc1)Cc1c(-c2ccc([N+](=O)[O-])cc2)sc2c1c(=O)n(-c1ccccc1)c(=O)n2Cc1c(F)cccc1F
57 to 60 °C | CCOC(=O)c1cnc2snc(C)c2c1N(C)S(=O)(=O)c1ccc(Oc2ccncc2)cc1
238 to 240 °C | CCOC(=O)c1c(I)c(NS(=O)(=O)c2cccc3c(N(C)C)cccc23)c(I)c(N(CC)C(C)=O)c1I
191 to 193 °C | CCNC(Cc1cc(I)c(Oc2cc(I)c(O)c(I)c2)c(I)c1)C(=O)O (configuration not stated)
118 to 119 °C | CC(C)CCCC(C)C1CCC2C3CC=C4CC(NCCCNC(=O)CCNC(=O)CCNC(=O)CCCCCNc5ccc([N+](=O)[O-])cc5[N+](=O)[O-])CCC4(C)C3CCC12C (configuration not stated)
158 to 160 °C | Cc1ccc(C(=O)OCCN(C)C)cc1-n1c(C)cc(OCc2ccc(F)cc2CNC(=O)Nc2cc(C(C)(C)C)nn2-c2cccc(OCCO)c2)c(Cl)c1=O
232 to 235 °C | CC(=O)OCC(CNC(=O)c1c(I)c(C(=O)NCC(COC(C)=O)OC(C)=O)c(I)c(N2CCCC(Br)C2=O)c1I)OC(C)=O (configuration not stated)
159 °C | CC(=O)OC1C(=O)C2(C)C(O)CC3OCC3(OC(C)=O)C2C(OC(=O)c2ccccc2)C23OC(=O)OC2C(OC(=O)C(O)C(CC(C)C)NC(=O)OC(C)(C)C)C(C)=C1C3(C)C (configuration not stated)
68.5 to 69.5 °C | CCCCCCCCCCCCCCCCCCOC(=O)c1cc(C(C)(C)C)c(O[Si](C)(C)Oc2c(C(C)(C)C)cc(C(=O)OCCCCCCCCCCCCCCCCCC)cc2C(C)(C)C)c(C(C)(C)C)c1
69 to 70 °C | CCCCCCCCCCOc1cc2c3cc(OCCCCCCCCCC)c(OCCCCCCCCCC)cc3c3c(OC)ccc(OC)c3c2cc1OCCCCCCCCCC
48 to 50 °C | CCCCCCCCCCCCCC=CC(OC(=O)c1ccccc1)C(COC1OC(CO)C(OCCC(C(=O)OC(C)(C)C)C(=O)OC(C)(C)C)C(O)C1O)NC(=O)CCCCCCCCCCCCCCC (configuration not stated)
174 to 176 °C | COc1cc(OC)c(/C=C/C(c2ccc(OC)c(NC(=N)N)c2)S(=O)(=O)C(/C=C/c2c(OC)cc(OC)cc2OC)c2ccc(OC)c(NC(=N)N)c2)c(OC)c1 (configuration not stated)
100 to 104 °C | COC(=O)c1ccc(Cn2c(C(=O)C3CCN(CCC4(c5ccc(OC)c(OC)c5)CCN(C(=O)c5cc(OC)c(OC)c(OC)c5)C4)CC3)nc3ccccc32)cc1 (configuration not stated)
97 to 99 °C | CC(C)[C@H](NC(=O)N(C)Cc1ccccn1)C(=O)N[C@@H](Cc1ccccc1)[C@H](O)[C@@H](O)[C@H](Cc1ccccc1)NC(=O)[C@@H](NC(=O)N(C)Cc1csc(N)n1)C(C)C
233 to 236 °C | CC(C)(c1ccc(OCC(O)CN2C(=O)NC3(CC(C)(C)N(CCO)C(C)(C)C3)C2=O)cc1)c1ccc(OCC(O)CN2C(=O)NC3(CC(C)(C)N(CCO)C(C)(C)C3)C2=O)cc1 (configuration not stated)
85 to 87 °C | CCCCCCCCCCCCCCCCCCN(CCCCCCCCCCCCCCCCCC)C(=O)c1cc(NS(=O)(=O)c2cnc(Cl)c(OC)c2)c2ccccc2c1O
223 to 224 °C | CC(C)(C)c1cc(-c2nnc(NC(=N)N)o2)cc(C(C)(C)C)c1O
176 to 178 °C | COC(=O)COC1C(NC(C)=O)C(OCc2ccccc2)OC(COCc2ccccc2)C1OC1(N)OC(COCc2ccccc2)C(OCc2ccccc2)C(OCc2ccccc2)C1C(=O)OCC(Cl)(Cl)Cl (configuration not stated)
119 to 121 °C | O=C(O)Cc1cccc(-c2cc(CCCC(=O)N3CCC(CCCC4CCN(C(=O)CCCc5ccc(OC6OC(CO)C(O)C(O)C6O)c(-c6cccc(CC(=O)O)c6)c5)CC4)CC3)ccc2OC2OC(CO)C(O)C(O)C2O)c1 (configuration not stated)
85 °C | CCN(c1nc(OCCOC(=O)CCC(=O)OCCOc2nc(N(CC)C3CC(C)(C)NC(C)(C)C3)nc(N(CC)C3CC(C)(C)NC(C)(C)C3)n2)nc(N(CC)C2CC(C)(C)NC(C)(C)C2)n1)C1CC(C)(C)NC(C)(C)C1
233 to 236 °C | CC1(C)CC(Oc2nc(N(C3CC(C)(C)N(O)C(C)(C)C3)C3CC(C)(C)N(O)C(C)(C)C3)nc(N(C3CC(C)(C)N(O)C(C)(C)C3)C3CC(C)(C)N(O)C(C)(C)C3)n2)CC(C)(C)N1O
260 to 262 °C | Cc1cccc(-c2sc(N)nc2-c2ccc([N+](=O)[O-])c(O)c2)n1
122 °C | CS(C)(=O)=NC(=O)c1cc(Oc2ccc(C(F)(F)F)cc2Cl)ccc1[N+](=O)[O-]
> 350 °C | Cc1cc(C)c(N2c3ccccc3S(=O)(=O)c3cc(C=Cc4ccc(-c5ccc(C=Cc6ccc7c(c6)S(=O)(=O)c6ccccc6N7c6c(C)cc(C)cc6C)cc5)cc4)ccc32)c(C)c1
155 to 165 °C | CCCCCCCCCCCCCC(=O)Nc1ccc(Cl)c(NC2=NN(c3c(Cl)cc(Cl)cc3Cl)C(=O)C2Sc2nnnn2-c2cccc(C(=O)O)c2)c1 (configuration not stated)
29 to 30 °C | CCCCCCCCCCSc1c(SCCCCCCCCCC)c(SCCCCCCCCCC)c(SCCCCCCCCCC)c(SCCCCCCCCCC)c1SCCCCCCCCCC

melting point | Compound
128 to 131 °C | COc1cc(OC)c(/C=C/C(c2ccc(OC)c(NCC(=O)O)c2)S(=O)(=O)C(/C=C/c2c(OC)cc(OC)cc2OC)c2ccc(OC)c(NCC(=O)O)c2)c(OC)c1 (configuration not stated)
295 to 298 °C | COc1cc2c3c(ccc4c5ccc6c7c(cc(OC)c(c1c34)c75)-c1ccccc1C6C#C[Si](C(C)C)(C(C)C)C(C)C)C(C#C[Si](C(C)C)(C(C)C)C(C)C)c1ccccc1-2 (configuration not stated)
292 to 294 °C | Cc1c(Cc2ccccc2)sc2nc(N)[nH]c(=O)c12
88 to 90 °C | CCOC(=O)C(C)c1cc(C)c(C(=O)c2ccc(Cl)cc2)n1C (configuration not stated)
108 to 109 °C | CCC1(CC)c2cc(-c3nc4ccccc4s3)ccc2-c2ccc(C(CCCCCN)c3ccc4c(c3)C(CC)(CC)c3cc(-c5nc6ccccc6s5)ccc3-4)cc21
58 to 60 °C | O=C(CC(=O)c1cc(F)c(F)cc1F)OCc1ccc(OCCCCCCCCCCC2c3c(c4ccccc4c4ccccc34)-c3c2c2ccccc2c2ccccc32)cc1
96 to 98 °C | [C-]#[N+]C1Cc2ccccc2C(=C)c2ccccc21 (configuration not stated)
112 to 114 °C | O=[N+]([O-])c1ccccc1N1CCc2cc(Br)ccc21
130 °C | CCN(CC)CCN=S(=O)(c1ccccc1)c1cccnc1 (configuration not stated)
189 °C | CC(=O)N1C(C)(C)CC(OC(=O)C(Cc2cc(C)c(O)c(C(C)(C)C)c2)(Cc2cc(C)c(O)c(C(C)(C)C)c2)C(=O)OC2CC(C)(C)N(C(C)=O)C(C)(C)C2)CC1(C)C
82 to 83 °C | FC(F)(F)C(F)(F)C(F)(F)C(F)(F)C(F)(F)C(F)(F)C(F)(F)C(F)(F)CCCCCCC1(CCCCCCC(F)(F)C(F)(F)C(F)(F)C(F)(F)C(F)(F)C(F)(F)C(F)(F)C(F)(F)F)c2cc(Br)ccc2-c2ccc(Br)cc21
79 to 81 °C | O=C(NCCCCCCCCCCCCNC(=O)C(O)C(O)C(OC1OC(CO)C(O)C(O)C1O)C(O)CO)C(O)C(O)C(OC1OC(CO)C(O)C(O)C1O)C(O)CO (configuration not stated)
218 to 220 °C | CC(=O)OCC1OC(OC2C(COC(C)=O)OC(OC3C(CO)OC(OCCBr)C(OC(=O)c4ccccc4)C3OC(=O)c3ccccc3)C(OC(C)=O)C2OC(C)=O)C(OC(C)=O)C(OC(C)=O)C1OC(C)=O (configuration not stated)
235 °C | O=C(O)CN1CCN(CC(=O)O)CCN(CC(=O)Nc2c(I)cc(I)c(C(=O)O)c2I)CCN(CC(=O)O)CC1
47 to 50 °C | NS(=O)(=O)c1ccc(-c2c(-c3ccccc3)noc2CO[N+](=O)[O-])cc1
75 to 77 °C | CCCCCCCCCCCCCCCCCCN(CCCCCCCCCCCCCCCCCC)C(=O)c1cc(NS(=O)(=O)c2cnc(NN)c(Cl)c2)c2ccccc2c1O
130 to 134 °C | CC(=O)OCC(CNC(=O)c1c(I)c(C(=O)NCC(COC(C)=O)OC(C)=O)c(I)c(N2CCCCC2=O)c1I)OC(C)=O (configuration not stated)
92 to 94 °C | CC(C)[C@H](NC(=O)N(C)Cc1cscn1)C(=O)N[C@@H](Cc1ccccc1)[C@@H](O)[C@H](O)[C@H](Cc1ccccc1)NC(=O)[C@@H](NC(=O)N(C)Cc1cscn1)C(C)C
93.9 to 95 °C | CCCCCCCCCCOc1c(-c2nc3ccccc3s2)sc(-c2sc(-c3nc4ccccc4s3)c(OCCCCCCCCCC)c2OCCCCCCCCCC)c1OCCCCCCCCCC
144 to 146 °C | COc1cc(OC)c(/C=C/C(c2ccc(OC)c(NS(=O)(=O)C(F)(F)F)c2)S(=O)(=O)C(/C=C/c2c(OC)cc(OC)cc2OC)c2ccc(OC)c(NS(=O)(=O)C(F)(F)F)c2)c(OC)c1 (configuration not stated)
> 300 °C | OP(=S)(C(F)(F)C(F)(F)C(F)(F)C(F)(F)C(F)(F)C(F)(F)C(F)(C(F)(F)F)C(F)(F)F)C(F)(F)C(F)(F)C(F)(F)C(F)(F)C(F)(F)C(F)(F)C(F)(C(F)(F)F)C(F)(F)F
92 to 95 °C | Nc1cc(C(F)(F)C(F)(F)OC(F)(F)C(F)(F)OC(F)(F)C(F)(F)OC(F)(F)C(F)(F)C(F)(F)C(F)(F)C(F)(F)OC(F)(F)C(F)(F)c2ccc(O)c(N)c2)ccc1O
166 to 167 °C | COC(=O)c1ccccc1CN1C(=O)C2(COc3cc4c(cc32)OCO4)c2ccccc21 (configuration not stated)
294 to 296 °C | Nc1nc2sc(Cc3ccccc3)cc2c(=O)[nH]1
165 to 166 °C | CC(C)[C@H](NC(=O)N1CCN(c2ccccc2)CC1)C(=O)N[C@@H](Cc1ccccc1)[C@@H](O)[C@H](O)[C@H](Cc1ccccc1)NC(=O)[C@@H](NC(=O)N1CCN(c2ccccc2)CC1)C(C)C

Compound | melting point
CP(C)CCP(C)C | 0 °C
Oc1c(Br)c(Br)c(-c2c(Br)c(Br)c(O)c(Br)c2Br)c(Br)c1Br | 282 °C
CCCCCCCCCCCCc1ccc(N=Nc2ccc(C(N)CCNC(=O)CCN(CCC(=O)NCCN(C)c3ccc(N=Nc4ccc(CCCCCCCCCCCC)cc4[N+](=O)[O-])cc3)c3ccc(N=Nc4ccc(CCCCCCCCCCCC)cc4[N+](=O)[O-])cc3)cc2)c([N+](=O)[O-])c1 (configuration not stated) | 127 to 129 °C
CCCCC(CC)CN1C(=O)C(=c2[nH]c(=c3[nH]c(=C4C(=O)N(CC(CC)CCCC)C(=O)N(CC(CC)CCCC)C4=O)c4ccccc34)c3ccccc23)C(=O)N(CC(CC)CCCC)C1=O (configuration not stated) | 198 to 206 °C
CCCCOC(=O)NC(COCc1ccccc1)C(=O)NC(Cc1c[nH]c2ccccc12)C(=O)NC(CO)C(=O)NC(Cc1ccc(O)cc1)C(=O)NC(Cc1ccccc1)C(=O)NC(CC(C)C)C(=O)OC (configuration not stated) (Butoxycarbonyl-S(Bn)WSYFL-OMe; configuration not given here) | 200 to 202 °C
Cc1nc(C(=O)Cl)c(C)o1 | 37.7 °C
